In patent US10723741B1, “DNA polymerase IIIC inhibitors and use thereof” (Acurx Pharmaceuticals, LLC, priority 2018, dated 2020):
Converted amounts (≈) assume the structure as drawn. Where two headings read alike, the source gives them in different places.

Experiments:
Assay type in all cases: cell-based
[1] = tested on: Enterococcus faecium ATCC 700221 (VRE); experiment: Broth microdilution MIC, E. faecium ATCC 700221 (VRE); details: Enterococcus faecium, broth microdilution, 37° C., 20 hours
Procedure, shortened: (§1)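 Broth microdilution in strain-specific test medium with ~5.0×10^5 cfu/ml inoculum, 1% DMSO and two-fold compound dilutions from 64 to 0.0625 μg/ml. Plates were held 20 hours at 37° C in ambient air. S. pneumoniae colonies were grown beforehand on blood agar in 5% CO2.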

[2] = tested on: Bacillus subtilis ATCC 6633; experiment: Broth microdilution MIC, B. subtilis ATCC 6633; details: ATCC6633, broth microdilution, 37° C., 20 hours, read-out: MIC B. subtilis ATCC 6633
Procedure, shortened: as §1

[3] = tested on: Escherichia coli ATCC 25922; experiment: Broth microdilution MIC, E. coli ATCC 25922 (MHIIB w & w/o 4 mM EDTA); details: broth microdilution, 37° C., 20 hours; for MIC: Escherichia coli, ATCC25922, without EDTA, read-out: MIC E. coli ATCC 25922; for MIC E. coli ATCC 25922 + 4 mM EDTA: with 4 mM EDTA
Procedure, shortened: as §1

[4] = tested on: Staphylococcus aureus NRS384 (MRSA); experiment: Broth microdilution MIC, S. aureus NRS384 (MRSA); details: Staphylococcus aureus, broth microdilution, 37° C., 20 hours
Procedure, shortened: as §1

[5] = tested on: Enterococcus faecalis ATCC 29212; experiment: Broth microdilution MIC, E. faecalis ATCC 29212; details: ATCC29212, broth microdilution, 37° C., 20 hours, read-out: MIC E. faecalis ATCC 29212
Procedure, shortened: as §1

[6] = tested on: Staphylococcus aureus ATCC 29213 (MSSA); experiment: Broth microdilution MIC, S. aureus ATCC 29213 (MSSA); details: broth microdilution, 37° C., 20 hours, read-out: MIC S. aureus ATCC 29213 (MSSA)
Procedure, shortened: as §1

[7] = tested on: Streptococcus pneumoniae ATCC 49619; experiment: Broth microdilution MIC, S. pneumoniae ATCC 49619; details: ATCC49619, broth microdilution, 37° C., 20 hours, read-out: MIC S. pneumoniae ATCC 49619
Procedure, shortened: as §1

[8] = read-out: MIC E. faecium ATCC 700221 (VRE)
[9] = S. aureus NRS 384, read-out: MIC NRS 384 (MRSA)

| SMILES | MIC [1, 8] [mg/L] | MIC [2] [mg/L] | MIC [3] [mg/L] | MIC E. coli ATCC 25922 + 4 mM EDTA [3] [mg/L] | MIC ([4]; read-out: MIC NRS 384 (MRSA)) [mg/L] | MIC [5] [mg/L] | MIC [6] [mg/L] | MIC [7] [mg/L] | MIC [4, 9] [mg/L] | MIC ([1]; MHIIB, read-out: MIC against E. faecium ATCC 700221 (VRE)) [mg/L] | MIC ([4]; MHIIB, read-out: MIC against S. aureus NRS 384 (MRSA)) [mg/L] |
| --- | --- | --- | --- | --- | --- | --- | --- | --- | --- | --- | --- |
| NS(=O)(=O)CCn1ncc2nc(NCc3ccc(Cl)c(Cl)c3)[nH]c(=O)c21 [Compound 237, 2-(5-((3,4-dichlorobenzyl)amino)-7-oxo-6,7-dihydro-1H-pyrazolo[4,3-d]pyrimidin-1-yl)ethanesulfonamide] | 16 (≈ 38.3 µM) | 16 (≈ 38.3 µM) | > 64 | 64 | 32 (≈ 76.7 µM) | 32 (≈ 76.7 µM) | 32 (≈ 76.7 µM) | 4 (≈ 9.59 µM) |  |  |  |
| Cl.O=C(O)C1CC(n2ncc3nc(NCc4ccc(Cl)c(Cl)c4)[nH]c(=O)c32)CN1C(=O)c1ccncc1 (stereo not drawn) [Compound 150, 4-(5-((3,4-dichlorobenzyl)amino)-7-oxo-6,7-dihydro-1H-pyrazolo[4,3-d]pyrimidin-1-yl)-1-isonicotinoylpyrrolidine-2-carboxylic acid hydrochloride] | > 64 | > 64 | > 64 | >64 | > 64 | > 64 | > 64 | > 64 |  |  |  |
| O=C(O)CCn1ncc2nc(NCc3ccc(Cl)c(Cl)c3)[nH]c(=O)c21 [Compound 229, 3-(5-((3,4-dichlorobenzyl)amino)-7-oxo-6,7-dihydro-1H-pyrazolo[4,3-d]pyrimidin-1-yl)propanoic Acid] | 64 (≈ 167 µM) | > 64 | > 64 | >64 | > 64 | 64 (≈ 167 µM) | > 64 | 16 (≈ 41.9 µM) |  |  |  |
| [2H]C([2H])(Nc1nc2cnn(CCOCCO)c2c(=O)[nH]1)c1ccc(Cl)c(Cl)c1 [Compound 291, 5-[[dideuterio-(3,4-dichlorophenyl)methyl]amino]-1-[2-(2-hydroxyethoxy)ethyl]-6H-pyrazolo[4,3-d]pyrimidin-7-one] | 4 (≈ 9.99 µM) | 4 (≈ 9.99 µM) | > 64 | >64 | 16 (≈ 40 µM) | 16 (≈ 40 µM) | 16 (≈ 40 µM) | 8 (≈ 20 µM) |  |  |  |
| CN1CC2CC1CN2CCn1ncc2nc(NCc3ccc(Cl)c(Cl)c3)[nH]c(=O)c21.Cl.Cl (stereo not drawn) [Compound 69, 5-((3,4-Dichlorobenzyl)amino)-1-(2-(5-methyl-2,5-diazabicyclo[2.2.1]heptan-2-yl)ethyl)-1H-pyrazolo[4,3-d]pyrimidin-7(6H)-one dihydrochloride] | > 64 | 4 | > 64 | >64 | 64 | 32 | 32 | 8 |  |  |  |
| CC(CCCn1ncc2nc(NCc3ccc(Cl)c(Cl)c3)[nH]c(=O)c21)C(=O)O (stereo not drawn) [Compound 202, 5-(5-((3,4-dichlorobenzyl)amino)-7-oxo-6,7-dihydro-1H-pyrazolo[4,3-d]pyrimidin-1-yl)-2-methylpentanoic acid] | 16 (≈ 37.7 µM) | 32 (≈ 75.4 µM) | > 64 | >64 | 32 (≈ 75.4 µM) | 32 (≈ 75.4 µM) | 32 (≈ 75.4 µM) | 8 (≈ 18.9 µM) |  |  |  |
| Cl.O=C(c1cccnc1)N1CCCC(Cn2ncc3nc(NCc4ccc(Cl)c(Cl)c4)[nH]c(=O)c32)C1 (stereo not drawn) [Compound 280, 5-((3,4-dichlorobenzyl)amino)-1-((1-nicotinoylpiperidin-3-yl)methyl)-1H-pyrazolo[4,3-d]pyrimidin-7(6H)-one hydrochloride] | 8 | 16 | > 64 | >64 | 16 | 16 | 16 | 8 |  |  |  |
| COc1ccc(CNc2nc3cnn(C)c3c(=O)[nH]2)cc1OC [Compound 32, 5-((3,4-Dimethoxybenzyl)amino)-1-methyl-1H-pyrazolo[4,3-d]pyrimidin-7(6H)-one] | > 64 | > 64 | > 64 | >64 | > 64 | > 64 | > 64 | > 64 |  |  |  |
| COC(=O)COCCOCCn1ncc2nc(NCc3ccc(Cl)c(Cl)c3)[nH]c(=O)c21 [Compound 186, methyl 2-(2-(2-(5-((3,4-dichlorobenzyl)amino)-7-oxo-6,7-dihydro-1H-pyrazolo[4,3-d]pyrimidin-1-yl)ethoxy)ethoxy)acetate] | 4 (≈ 8.5 µM) | 4 (≈ 8.5 µM) | > 64 | >64 | 8 (≈ 17 µM) | 16 (≈ 34 µM) | 16 (≈ 34 µM) | > 64 |  |  |  |

Now those with a lower MIC [1, 8], led by results:

| MIC [1, 8] [mg/L] | MIC [2] [mg/L] | MIC [3] [mg/L] | MIC E. coli ATCC 25922 + 4 mM EDTA [3] [mg/L] | MIC ([4]; read-out: MIC NRS 384 (MRSA)) [mg/L] | MIC [5] [mg/L] | MIC [6] [mg/L] | MIC [7] [mg/L] | MIC [4, 9] [mg/L] | MIC ([1]; MHIIB, read-out: MIC against E. faecium ATCC 700221 (VRE)) [mg/L] | MIC ([4]; MHIIB, read-out: MIC against S. aureus NRS 384 (MRSA)) [mg/L] | SMILES |
| --- | --- | --- | --- | --- | --- | --- | --- | --- | --- | --- | --- |
| 2 | 1 | > 64 | >64 | 4 | 4 | 4 | 4 |  |  |  | Cl.O=C(c1ncc[nH]1)N1CCC(n2ncc3nc(NCc4ccc(Cl)c(Cl)c4)[nH]c(=O)c32)CC1 [Compound 269, 1-(1-(1H-imidazole-2-carbonyl)piperidin-4-yl)-5-((3,4-dichlorobenzyl)amino)-1H-pyrazolo[4,3-d]pyrimidin-7(6H)-one hydrochloride] |
| 2 (≈ 5.11 µM) | 2 (≈ 5.11 µM) | > 64 | 8 | 4 (≈ 10.2 µM) | 4 (≈ 10.2 µM) | 4 (≈ 10.2 µM) | 4 (≈ 10.2 µM) |  |  |  | O=c1[nH]c(NCc2ccc(Cl)c(Cl)c2)nc2cnn(Cc3cocn3)c12 [Compound 92, 5-((3,4-Dichlorobenzyl)amino)-1-(oxazol-4-ylmethyl)-1H-pyrazolo[4,3-d]pyrimidin-7(6H)-one] |
| 2 | 1 | > 64 | >64 | 4 | 4 | 4 | 4 |  |  |  | Cc1cncc(C(=O)N2CCC(n3ncc4nc(NCc5ccc(Cl)c(Cl)c5)[nH]c(=O)c43)CC2)c1.Cl [Compound 261, 5-((3,4-Dichlorobenzyl)amino)-1-(1-(5-methylnicotinoyl)piperidin-4-yl)-1H-pyrazolo[4,3-d]pyrimidin-7(6H)-one hydrochloride] |
| 1 (≈ 2.44 µM) | 0.5 (≈ 1.22 µM) | > 64 | >64 |  | 2 (≈ 4.89 µM) | 2 (≈ 4.89 µM) | 4 (≈ 9.77 µM) | 2 (≈ 4.89 µM) |  |  | O=c1[nH]c(NCc2ccc(Cl)c(Cl)c2)nc2c(F)nn(Cc3cocn3)c12 [Compound 306, 5-((3,4-Dichlorobenzyl)amino)-3-fluoro-1-(oxazol-4-ylmethyl)-1H-pyrazolo[4,3-d]pyrimidin-7(6H)-one] |
| 0.5 (≈ 1.24 µM) | 0.5 (≈ 1.24 µM) | > 64 | >64 |  | 2 (≈ 4.97 µM) | 1 (≈ 2.48 µM) | 2 (≈ 4.97 µM) | 1 (≈ 2.48 µM) | ≤ 1 | ≤ 1 | COCCn1nc(Cl)c2nc(NCc3ccc(Cl)c(Cl)c3)[nH]c(=O)c21 [Compound 304, 3-Chloro-5-((3,4-dichlorobenzyl)amino)-1-(2-methoxyethyl)-1H-pyrazolo[4,3-d]pyrimidin-7(6H)-one] |
